Assay results from ChEMBL document CHEMBL4007391, “Tackling Fungal Resistance by Biofilm Inhibitors” (J Med Chem, 2017).
≈ marks a conversion by molar mass, not a printed value.

Tests used:
Candida albicans [1] = assay: Disruption of biofilm of Candida albicans DAY185 assessed as death of biofilm hyphae after 24 hrs by XTT assay; assay type: functional
Candida albicans [2] = assay: Disruption of biofilm of Candida albicans ATCC 90028 after 48 hrs in presence of voriconazole by XTT assay; assay type: functional
Candida albicans [3] = assay: Inhibition of biofilm formation of Candida albicans ATCC 90028 after 48 hrs in presence of fluconazole by XTT assay; assay type: functional
Candida albicans [4] = assay: Inhibition of biofilm formation of Candida albicans ATCC 90028 after 48 hrs in presence of voriconazole by XTT assay; assay type: functional
Candida albicans [5] = assay: Disruption of biofilm of Candida albicans ATCC 90028 after 48 hrs in presence of fluconazole by XTT assay; assay type: functional
[6] = Toxicity in mouse; assay type: organism-based; details: in vivo
Candida albicans [7] = assay: Antifungal activity against fluconazole-susceptible Candida albicans by broth microdilution assay; assay type: functional
Candida albicans [8] = assay: Antifungal activity against fluconazole-resistant Candida albicans by broth microdilution assay; assay type: functional
Cryptococcus neoformans = assay: Antifungal activity against Cryptococcus neoformans KCTC 7224 clinical isolates after 7 days by two fold serial dilution method; assay type: functional; details: KCTC 7224, 168 h
[9] = test system: Trichophyton mentagrophytes; assay: Antifungal activity against Trichophyton mentagrophytes KCTC 6077 clinical isolates after 7 days by two fold serial dilution method; assay type: functional; details: KCTC 6077, 168 h
Candida albicans [10] = assay: Antifungal activity against Candida albicans KCTC 1940 clinical isolates after 7 days by two fold serial dilution method; assay type: functional; details: KCTC 1940, 168 h
Candida albicans [11] = assay: Antifungal activity against fluconazole-resistant Candida albicans after 48 hrs by broth microdilution assay; assay type: functional
Candida albicans [12] = assay: Inhibition of biofilm formation of fluconazole-resistant Candida albicans at 2 to 4 ug/ml after 24 hrs by XTT assay; assay type: functional
Candida albicans [13] = assay: Disruption of biofilm of fluconazole-resistant Candida albicans at 8 to 32 ug/ml after 24 hrs by XTT assay; assay type: functional
Candida [14] = assay: Antifungal activity against Candida after 48 hrs by broth microdilution assay; assay type: functional
Candida [15] = assay: Antifungal activity against drug-resistant Candida spp. clinical isolates after 48 hrs by broth microdilution assay; assay type: functional
Candida albicans [16] = assay: Antifungal activity against Candida albicans by broth dilution assay; assay type: functional

## C=C(C)[C@H](CC=C(C)C)C[C@]12C[C@H](CC=C(C)C)C(C)(C)[C@](CC=C(C)C)(C(=O)C(C(=O)c3ccc(O)c(O)c3)=C1O)C2=O
Candida albicans [1]
  EC50: 30 to 50 µM

## CCN(CC)CCCC(C)Nc1ccnc2cc(Cl)ccc12 (stereo not given) [CHLOROQUINE]
Candida albicans [2]
  fractional inhibitory concentration index (FICI): 0.156 - 0.25
Candida albicans [3]
  fractional inhibitory concentration index (FICI): 0.156 - 0.25
Candida albicans [4]
  fractional inhibitory concentration index (FICI): 0.156 - 0.25
Candida albicans [5]
  fractional inhibitory concentration index (FICI): 0.156 - 0.25

## NC1C2CC3CC(C2)CC1C3 (stereo not given)
[6]
  LD50: 250 mg/kg

## COc1ccc2cc1Oc1ccc(cc1)C[C@H]1c3cc(c(OC)cc3CCN1C)Oc1c(OC)c(OC)cc3c1[C@H](C2)N(C)CC3 [FANCHININ]
Candida albicans [7]
  MIC80: 64 µg/mL (≈ 103 µM)
Candida albicans [8]
  MIC80: 64 µg/mL (≈ 103 µM)

## C=CCc1ccc(O)c(-c2cc(CC=C)ccc2O)c1 [MAGNOLOL]
Cryptococcus neoformans
  MIC: 25 µg/mL (≈ 93.9 µM)
[9]
  MIC: 25 µg/mL (≈ 93.9 µM)
Candida albicans [10]
  MIC: 16 to 32 µg/mL (≈ 60.1 to 120 µM)

## CCCCCCCCCCCCCCCCOP(=O)([O-])OCC[N+](C)(C)C [MILTEFOSINE]
Candida albicans [11]
  MIC: 0.5 to 2 µg/mL (≈ 1.23 to 4.91 µM)
Candida albicans [12]
  inhibition (INH): 90%
Candida albicans [13]
  inhibition (INH): >90%

## CN(C)c1ccc(/C=C/c2cc(C(C)(C)C)[o+]c(C(C)(C)C)c2)cc1.[O-][Cl+3]([O-])([O-])[O-]
Candida [14]
  MIC: 0.2 to 6.25 µg/mL
Candida [15]
  MIC: 0.5 to 1 µg/mL

## COc1cc(/C=C/c2ccc(O)cc2)cc(OC)c1 [PTEROSTILBENE]
Candida albicans [16]
  MIC80: 32 µg/mL (≈ 125 µM)

## C=CCc1ccc(O)c(-c2ccc(O)c(CC=C)c2)c1 [HONOKIOL]
Cryptococcus neoformans
  MIC: 25 µg/mL (≈ 93.9 µM)
[9]
  MIC: 25 µg/mL (≈ 93.9 µM)
Candida albicans [10]
  MIC: 16 to 32 µg/mL (≈ 60.1 to 120 µM)
